Laboratory results: patent publication US20260209223A1, “FGFR3 INHIBITOR COMPOUNDS” (TYRA BIOSCIENCES, INC., priority 2022, published 2026)

Columns and labels:
[1] = molecular target: T1, Ba/F3 BCR-FGFR1 (Homo sapiens, UniProt P11362); assay: Ba/F3 cell viability assay (CellTiter-Glo 2.0); assay type: cell-based; settings: Ba/F3 cell data, BCR-FGFR1 fusion, 48 hours
T1 construct: BCR (fusion partner); host or cells: Ba/F3; the other entry of the earlier key: BCR (P11274, Breakpoint cluster region protein)
T1 sequence (P11362 478-767 limits assumed): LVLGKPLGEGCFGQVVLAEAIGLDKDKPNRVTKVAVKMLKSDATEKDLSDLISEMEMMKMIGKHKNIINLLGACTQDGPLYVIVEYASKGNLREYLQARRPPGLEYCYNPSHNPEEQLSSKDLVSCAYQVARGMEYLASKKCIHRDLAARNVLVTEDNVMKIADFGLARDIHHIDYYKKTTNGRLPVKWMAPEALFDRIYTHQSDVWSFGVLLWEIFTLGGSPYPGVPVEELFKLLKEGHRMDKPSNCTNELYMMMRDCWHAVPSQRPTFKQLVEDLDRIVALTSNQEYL

[2] = molecular target: T2, Ba/F3 FGFR3-BAIAP2L1 (Homo sapiens, UniProt P22607); assay: Ba/F3 cell viability assay (CellTiter-Glo 2.0); assay type: cell-based; settings: Ba/F3 cell data, FGFR3-BAIAP2L1 fusion, 48 hours
T2 construct: BAIAP2L1 (fusion partner, Q9UHR4 if human); host or cells: Ba/F3; the other entry of the earlier key: BAIAP2L1 (Q9UHR4, BAR/IMD domain-containing adapter protein 2-like 1)
T2 sequence (P22607 397-758 limits assumed): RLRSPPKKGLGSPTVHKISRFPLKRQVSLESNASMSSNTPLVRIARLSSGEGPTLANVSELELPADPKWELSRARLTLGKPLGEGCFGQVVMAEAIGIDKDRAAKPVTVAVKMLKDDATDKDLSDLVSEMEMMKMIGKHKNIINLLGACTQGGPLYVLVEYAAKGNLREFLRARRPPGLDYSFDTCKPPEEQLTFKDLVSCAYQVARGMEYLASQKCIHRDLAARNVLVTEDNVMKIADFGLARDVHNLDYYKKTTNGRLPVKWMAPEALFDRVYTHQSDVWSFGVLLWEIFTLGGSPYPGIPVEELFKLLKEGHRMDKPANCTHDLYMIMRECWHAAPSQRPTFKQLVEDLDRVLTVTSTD

[3] = molecular target: T3, Ba/F3 BCR-FGFR2 (Homo sapiens, UniProt P21802); assay: Ba/F3 cell viability assay (CellTiter-Glo 2.0); assay type: cell-based; settings: Ba/F3 cell data, BCR-FGFR2 fusion, 48 hours
T3 construct: BCR (fusion partner); host or cells: Ba/F3; the other entry of the earlier key: BCR (P11274, Breakpoint cluster region protein)
T3 sequence (P21802 481-770 limits assumed): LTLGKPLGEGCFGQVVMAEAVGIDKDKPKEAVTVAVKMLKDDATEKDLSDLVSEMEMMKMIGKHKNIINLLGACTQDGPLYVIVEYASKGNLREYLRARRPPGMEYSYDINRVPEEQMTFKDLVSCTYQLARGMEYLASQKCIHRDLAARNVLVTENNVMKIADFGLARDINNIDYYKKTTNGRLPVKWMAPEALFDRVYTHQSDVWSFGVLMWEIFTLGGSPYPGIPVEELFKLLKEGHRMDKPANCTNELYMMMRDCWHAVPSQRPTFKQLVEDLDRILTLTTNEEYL

[4] = molecular target: T4, Ba/F3 ETV5-FGFR4 (Homo sapiens, UniProt P22455); assay: Ba/F3 cell viability assay (CellTiter-Glo 2.0); assay type: cell-based; settings: Ba/F3 cell data, ETV5-FGFR4 fusion, 48 hours
T4 construct: host or cells: Ba/F3; the other entry of the earlier key: ETV5 (P41161, ETS translocation variant 5)
T4 sequence (P22455 467-755 limits assumed): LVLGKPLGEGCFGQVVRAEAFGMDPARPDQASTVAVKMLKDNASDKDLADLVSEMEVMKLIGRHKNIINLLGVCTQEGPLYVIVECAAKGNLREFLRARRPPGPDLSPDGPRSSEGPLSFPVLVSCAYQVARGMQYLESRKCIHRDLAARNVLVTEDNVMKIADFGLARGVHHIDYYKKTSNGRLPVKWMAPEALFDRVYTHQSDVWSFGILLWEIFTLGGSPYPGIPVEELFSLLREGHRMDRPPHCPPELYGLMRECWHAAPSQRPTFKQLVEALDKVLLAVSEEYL
From the text: Experimental Purpose: Recombinant kinase fusions are transduced into parental Ba/F3, which becomes dependent upon this constitutive kinase activity for IL3-independent survival. Inhibition of kinase activity leads to cell death, which is monitored using CellTiter-Glo® 2.0 (Promega) which measures intracellular ATP concentration that in turn serves as a marker for viability. BCR-FGFR1 Ba/F3, BCR-FGFR2 and FGFR3-BAIAP2L1 Ba/F3 were obtained from Advanced Cellular Dynamics (Seattle, WA). ETV6-FGFR4 was obtained from Kyinno (Waltham, MA).
Cell Viability Assay Procedure: Cell Titer-Glo® 2.0 Luminescent cell viability assay reagent was purchased from Promega (Madison, WI). Ba/F3 cell lines were cultured in RPMI1640 media supplemented with 10% fetal bovine serum. Cultures were maintained at 37° C. in a humidified atmosphere of 5% CO2 and 95% air.
Cells were plated in 96-well clear bottom/white plates (Corning #3903) at 10,000 cells/well in 100 μl of media, incubated overnight. The next day, test compound DMSO stock solutions were made at 10 mM and 2 μM final concentration. Compounds were then added to cells in a 9-dose, 10-fold dilution series starting at 30 μM with an HP 300e Digital Dispenser (each dose was applied in triplicate). DMSO was backfilled to each well up to 301 nL total volume of test compound+DMSO, and a total of 301 nL DMSO was added to a control/no test compound well in triplicate. The cells in cell culture plates were incubated with the compounds at 37° C. and 5% CO2 for 48 hours. Then 50 μl of Cell Titer Glo 2.0 reagent was added to each well of the cell culture plates. The contents were covered from light and mixed on an orbital shaker at room temperature for 10 min. Luminescence was recorded by a Synergy H1 Microplate Reader (Biotek, Winooski, VT). Cells were assessed as a percentage of DMSO only treated control cells. Curves were plotted and IC50 values were calculated using the GraphPad Prism 8 program based on a sigmoidal dose-response equation (4 parameter).

[5] = molecular target: T5, FGFR1 (Homo sapiens, UniProt P11362); assay: Kinase binding assay (Kd), kinase-tagged T7 phage, affinity beads, qPCR; settings: in vitro binding assay, 11-point 3-fold dilution series
T5 construct: made in house; host or cells: E. coli (BL21-derived) infected with T7 phage
T5 sequence (P11362 22-822): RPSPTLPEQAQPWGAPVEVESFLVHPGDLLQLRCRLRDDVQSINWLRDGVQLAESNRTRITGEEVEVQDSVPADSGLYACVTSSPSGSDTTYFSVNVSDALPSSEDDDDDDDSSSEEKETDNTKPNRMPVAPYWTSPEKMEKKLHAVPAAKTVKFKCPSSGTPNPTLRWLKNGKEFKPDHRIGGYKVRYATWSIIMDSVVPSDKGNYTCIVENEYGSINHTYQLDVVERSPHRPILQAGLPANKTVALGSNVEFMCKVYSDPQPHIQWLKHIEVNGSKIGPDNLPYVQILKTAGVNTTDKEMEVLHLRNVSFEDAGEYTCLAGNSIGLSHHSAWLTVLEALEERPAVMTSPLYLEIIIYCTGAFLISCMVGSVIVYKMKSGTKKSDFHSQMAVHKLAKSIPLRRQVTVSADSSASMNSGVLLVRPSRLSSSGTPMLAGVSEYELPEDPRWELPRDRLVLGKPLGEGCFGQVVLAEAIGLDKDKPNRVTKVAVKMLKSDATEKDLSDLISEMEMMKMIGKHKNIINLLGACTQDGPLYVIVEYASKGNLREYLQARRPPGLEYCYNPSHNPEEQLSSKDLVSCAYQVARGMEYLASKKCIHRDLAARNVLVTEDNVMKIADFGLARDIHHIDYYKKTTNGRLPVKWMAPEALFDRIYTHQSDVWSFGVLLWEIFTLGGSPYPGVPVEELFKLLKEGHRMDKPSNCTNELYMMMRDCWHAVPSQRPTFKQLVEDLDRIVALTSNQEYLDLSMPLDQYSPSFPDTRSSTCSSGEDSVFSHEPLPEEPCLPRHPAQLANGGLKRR
Procedure: (§1) Kinase-tagged T7 phage strains were prepared in an E. coli host derived from the BL21 strain. E. coli were grown to log-phase and infected with T7 phage and incubated with shaking at 32° C. until lysis. The lysates were centrifuged and filtered to remove cell debris. Streptavidin-coated magnetic beads were treated with biotinylated small molecule ligands for 30 minutes at room temperature to generate affinity resins for kinase assays. The liganded beads were blocked with excess biotin and washed with blocking buffer SeaBlock (Pierce), 1% BSA, 0.05% Tween 20, 1 mM DTT to remove unbound ligand and to reduce non-specific binding. Binding reactions were assembled by combining kinases, liganded affinity beads, and test compounds in 1× binding buffer (20% SeaBlock, 0.17×PBS, 0.05% Tween 20, 6 mM DTT).
(§2) Test compounds were prepared as 111× stocks in 100% DMSO. Kds were determined using an 11-point 3-fold compound dilution series with three DMSO control points. All compounds for Kd measurements are distributed by acoustic transfer (non-contact dispensing) in 100% DMSO. The compounds were then diluted directly into the assays such that the final concentration of DMSO was 0.9%. All reactions performed in polypropylene 384-well plate. Each was a final volume of 0.02 ml. The assay plates were incubated at room temperature with shaking for 1 hour and the affinity beads were washed with wash buffer (1×PBS, 0.05% Tween 20). The beads were then re-suspended in elution buffer (1×PBS, 0.05% Tween 20, 0.5 μM non-biotinylated affinity ligand) and incubated at room temperature with shaking for 30 minutes. The kinase concentration in the eluates was measured by qPCR.
(§3) Binding constants were calculated with a standard dose-response curve using the Hill equation: […]
(§4) The Hill Slope was set to −1. Curves were fitted using a non-linear least square fit with the Levenberg-Marquardt algorithm.

[6] = molecular target: T6, FGFR3 (V555M) (Homo sapiens, UniProt P22607, V555M); assay: as above; settings: in vitro binding assay, 11-point 3-fold dilution series
T6 construct: made in house; host or cells: E. coli (BL21-derived) infected with T7 phage
T6 sequence (P22607 23-806 V555M): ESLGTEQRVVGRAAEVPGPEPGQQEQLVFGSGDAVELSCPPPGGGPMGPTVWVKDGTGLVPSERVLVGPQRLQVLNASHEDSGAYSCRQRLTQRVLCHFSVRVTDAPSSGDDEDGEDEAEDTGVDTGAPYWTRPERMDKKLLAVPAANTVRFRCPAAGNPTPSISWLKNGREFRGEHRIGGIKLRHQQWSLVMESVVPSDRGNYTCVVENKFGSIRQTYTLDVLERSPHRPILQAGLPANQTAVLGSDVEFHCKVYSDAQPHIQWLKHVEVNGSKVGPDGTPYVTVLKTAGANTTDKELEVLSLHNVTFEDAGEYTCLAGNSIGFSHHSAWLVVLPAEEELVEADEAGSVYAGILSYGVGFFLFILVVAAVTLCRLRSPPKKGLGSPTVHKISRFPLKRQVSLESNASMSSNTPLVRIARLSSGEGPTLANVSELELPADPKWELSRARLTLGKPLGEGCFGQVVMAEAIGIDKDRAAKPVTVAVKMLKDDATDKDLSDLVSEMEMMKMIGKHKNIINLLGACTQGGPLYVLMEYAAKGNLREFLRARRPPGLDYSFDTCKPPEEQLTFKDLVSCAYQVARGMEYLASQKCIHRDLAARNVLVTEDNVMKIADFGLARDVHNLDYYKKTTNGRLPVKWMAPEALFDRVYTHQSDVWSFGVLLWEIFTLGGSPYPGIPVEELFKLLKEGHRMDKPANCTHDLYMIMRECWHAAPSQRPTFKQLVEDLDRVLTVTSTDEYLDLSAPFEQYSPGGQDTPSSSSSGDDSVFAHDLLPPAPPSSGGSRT
Procedure: as §1, §2, §3, §4

[7] = molecular target: T7, FGFR2 (Homo sapiens, UniProt P21802); assay: as above; settings: in vitro binding assay, 11-point 3-fold dilution series
T7 construct: made in house; host or cells: E. coli (BL21-derived) infected with T7 phage
T7 sequence (P21802 22-821): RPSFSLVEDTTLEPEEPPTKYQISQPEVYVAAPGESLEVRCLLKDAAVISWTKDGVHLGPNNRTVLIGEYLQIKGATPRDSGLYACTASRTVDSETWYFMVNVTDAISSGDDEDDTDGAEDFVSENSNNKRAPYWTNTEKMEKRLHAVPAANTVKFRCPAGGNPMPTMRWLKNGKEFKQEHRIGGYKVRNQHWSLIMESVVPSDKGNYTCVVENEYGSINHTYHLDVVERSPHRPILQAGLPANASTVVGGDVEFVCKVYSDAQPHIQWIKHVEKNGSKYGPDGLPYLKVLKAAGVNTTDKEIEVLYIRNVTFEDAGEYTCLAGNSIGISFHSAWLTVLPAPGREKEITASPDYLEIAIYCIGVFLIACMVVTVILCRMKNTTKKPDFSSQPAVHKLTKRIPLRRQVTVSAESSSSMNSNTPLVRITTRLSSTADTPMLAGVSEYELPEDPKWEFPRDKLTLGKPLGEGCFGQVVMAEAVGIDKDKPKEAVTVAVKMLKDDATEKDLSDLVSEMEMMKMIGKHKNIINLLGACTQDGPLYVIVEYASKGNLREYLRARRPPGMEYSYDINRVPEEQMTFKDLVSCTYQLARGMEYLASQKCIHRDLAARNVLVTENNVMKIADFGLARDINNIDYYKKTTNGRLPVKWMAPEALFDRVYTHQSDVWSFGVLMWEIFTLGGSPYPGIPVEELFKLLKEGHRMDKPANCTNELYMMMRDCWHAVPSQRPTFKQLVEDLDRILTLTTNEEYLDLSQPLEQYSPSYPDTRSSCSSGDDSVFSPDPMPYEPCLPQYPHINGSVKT
Procedure: as §1, §2, §3, §4

[8] = molecular target: T8, FGFR3 (Homo sapiens, UniProt P22607); assay: as above; settings: in vitro binding assay, 11-point 3-fold dilution series
T8 construct: made in house; host or cells: E. coli (BL21-derived) infected with T7 phage
T8 sequence (P22607 23-806): as the sequence (P22607 23-806 V555M) above, with M533V counted along it
Procedure: as §1, §2, §3, §4

[9] = molecular target: T9, FGFR4 (Homo sapiens, UniProt P22455); assay: as above; settings: in vitro binding assay, 11-point 3-fold dilution series
T9 construct: made in house; host or cells: E. coli (BL21-derived) infected with T7 phage
T9 sequence (P22455 22-802): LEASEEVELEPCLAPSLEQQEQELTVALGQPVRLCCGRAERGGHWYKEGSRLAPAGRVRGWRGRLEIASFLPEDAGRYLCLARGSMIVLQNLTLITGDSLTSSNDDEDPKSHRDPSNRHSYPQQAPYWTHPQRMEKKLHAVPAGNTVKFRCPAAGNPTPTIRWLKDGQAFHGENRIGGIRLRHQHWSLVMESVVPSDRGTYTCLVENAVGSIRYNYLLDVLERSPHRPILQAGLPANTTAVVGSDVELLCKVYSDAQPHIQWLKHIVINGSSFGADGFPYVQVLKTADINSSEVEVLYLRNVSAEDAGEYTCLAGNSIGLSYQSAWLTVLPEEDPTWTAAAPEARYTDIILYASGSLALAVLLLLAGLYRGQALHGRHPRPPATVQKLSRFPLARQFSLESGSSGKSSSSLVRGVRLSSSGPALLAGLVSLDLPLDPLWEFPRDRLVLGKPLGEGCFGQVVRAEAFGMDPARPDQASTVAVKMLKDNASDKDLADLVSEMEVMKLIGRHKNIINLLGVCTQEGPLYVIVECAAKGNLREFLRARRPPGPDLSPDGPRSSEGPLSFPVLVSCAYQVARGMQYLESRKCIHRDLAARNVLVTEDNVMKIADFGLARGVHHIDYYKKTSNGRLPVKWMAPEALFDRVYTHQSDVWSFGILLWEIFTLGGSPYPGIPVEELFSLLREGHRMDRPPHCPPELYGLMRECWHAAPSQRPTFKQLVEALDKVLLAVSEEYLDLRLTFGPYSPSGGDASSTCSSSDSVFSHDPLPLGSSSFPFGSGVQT
Procedure: as §1, §2, §3, §4

Kd [5]	Kd [6]	Kd [7]	Kd [8]	Kd [9]	SMILES	Kd [1]	Kd [2]	Kd [3]	Kd [4]
250 to 1000 nM	100 to 250 nM	100 to 250 nM	100 to 250 nM	250 to 1000 nM	C=CC(=O)N1CCC2(CC1)CC(n1ncc(-c3cc(OC(CO)c4ccnn4C)c4c(C#N)cnn4c3)c1C)C2 (centres unmarked) [Example 11, 6-(1-(7-acryloyl-7-azaspiro[3.5]nonan-2-yl)-5-methyl-1H-pyrazol-4-yl)-4-(2-hydroxy-1-(1-methyl-1H-pyrazol-5-yl)ethoxy)pyrazolo[1,5-a]pyridine-3-carbonitrile]	≥ 1000 nM	250 to 1000 nM	≥ 1000 nM	≥ 1000 nM
0.1 to 100 nM	0.1 to 100 nM	0.1 to 100 nM	0.1 to 100 nM	0.1 to 100 nM	COC1(C(=O)N2CCC(n3nnc(-c4cc(OC(CO)c5ccccn5)c5c(C#N)cnn5c4)c3C)CC2)CN(C(=O)/C=C/CN(C)C)C1 (centres unmarked) [Example 23, (E)-6-(1-(1-(1-(4-(dimethylamino)but-2-enoyl)-3-methoxyazetidine-3-carbonyl)piperidin-4-yl)-5-methyl-1H-1,2,3-triazol-4-yl)-4-(2-hydroxy-1-(pyridin-2-yl)ethoxy)pyrazolo[1,5-a]pyridine-3-carbonitrile]	≥ 1000 nM	250 to 1000 nM	≥ 1000 nM	≥ 1000 nM
≥ 1000 nM	250 to 1000 nM	250 to 1000 nM	100 to 250 nM	≥ 1000 nM	C=CC(=O)N1CC(OC)(C(=O)N2CCC(n3nnc(-c4cc(O[C@@H](CO)c5ccccn5)c5c(C#N)cnn5c4)c3C)CC2)C1 [Example 21, (R)-6-(1-(1-(1-acryloyl-3-methoxyazetidine-3-carbonyl)piperidin-4-yl)-5-methyl-1H-1,2,3-triazol-4-yl)-4-(2-hydroxy-1-(pyridin-2-yl)ethoxy)pyrazolo[1,5-a]pyridine-3-carbonitrile]	≥ 1000 nM	≥ 1000 nM	≥ 1000 nM	≥ 1000 nM
250 to 1000 nM	250 to 1000 nM	250 to 1000 nM	250 to 1000 nM		C=CC(=O)N1CCC2(CC1)CC(n1ncc(-c3cc(O[C@@H](CO)c4ccc(F)cn4)c4c(C#N)cnn4c3)c1C)C2 [Example 10, (R)-6-(1-(7-acryloyl-7-azaspiro[3.5]nonan-2-yl)-5-methyl-1H-pyrazol-4-yl)-4-(1-(5-fluoropyridin-2-yl)-2-hydroxyethoxy)pyrazolo[1,5-a]pyridine-3-carbonitrile]	≥ 1000 nM	250 to 1000 nM	≥ 1000 nM	≥ 1000 nM
0.1 to 100 nM	0.1 to 100 nM	0.1 to 100 nM	0.1 to 100 nM	0.1 to 100 nM	C=CC(=O)N1CCC2(CC1)CC(n1ncc(-c3cc(OC(CO)c4cncc5ccccc45)c4c(C#N)cnn4c3)c1C)C2 (centres unmarked) [Example 15, 6-(1-(7-acryloyl-7-azaspiro[3.5]nonan-2-yl)-5-methyl-1H-pyrazol-4-yl)-4-(2-hydroxy-1-(isoquinolin-4-yl)ethoxy)pyrazolo[1,5-a]pyridine-3-carbonitrile]	100 to 250 nM	0.1 to 100 nM	100 to 250 nM	250 to 1000 nM

The remaining lines, values behind:

SMILES	Kd [5]	Kd [6]	Kd [7]	Kd [8]	Kd [9]	Kd [1]	Kd [2]	Kd [3]	Kd [4]
C=CC(=O)N1CCC2(CC1)CC(n1ncc(-c3cc(O[C@@H](CO)c4ccccn4)c4c(Cl)cnn4c3)c1C)C2 [Example 5, (R)-1-(2-(4-(3-chloro-4-(2-hydroxy-1-(pyridin-2-yl)ethoxy)pyrazolo[1,5-a]pyridin-6-yl)-5-methyl-1H-pyrazol-1-yl)-7-azaspiro[3.5]nonan-7-yl)prop-2-en-1-one]	≥ 1000 nM			250 to 1000 nM		≥ 1000 nM	250 to 1000 nM	≥ 1000 nM	≥ 1000 nM
C=CC(=O)N1CCC2(CC1)CC(n1ncc(-c3cc(O[C@@H](CO)c4ccccn4)c4c(C#N)cnn4c3)c1C)C2 [Example 7, (R)-6-(1-(7-acryloyl-7-azaspiro[3.5]nonan-2-yl)-5-methyl-1H-pyrazol-4-yl)-4-(2-hydroxy-1-(pyridin-2-yl)ethoxy)pyrazolo[1,5-a]pyridine-3-carbonitrile]	250 to 1000 nM	250 to 1000 nM	100 to 250 nM	100 to 250 nM	250 to 1000 nM	≥ 1000 nM	100 to 250 nM	250 to 1000 nM	250 to 1000 nM
CCC(=O)N1CCC2(CC1)CC(n1cc(-c3cc(O[C@H](CO)c4ccc(F)cn4)c4c(C#N)cnn4c3)cn1)C2 [Example 28, (S)-4-(1-(5-fluoropyridin-2-yl)-2-hydroxyethoxy)-6-(1-(7-propionyl-7-azaspiro[3.5]nonan-2-yl)-1H-pyrazol-4-yl)pyrazolo[1,5-a]pyridine-3-carbonitrile]	0.1 to 100 nM	0.1 to 100 nM	0.1 to 100 nM	0.1 to 100 nM	0.1 to 100 nM	100 to 250 nM	0.1 to 100 nM	0.1 to 100 nM	100 to 250 nM
C=CC(=O)N1CCC2(CC1)CC(n1ncc(-c3cc(OC(CO)c4ccccn4)c4c(Cl)cnn4c3)c1C)C2 (single isomer, unassigned) [Example 6]	100 to 250 nM			0.1 to 100 nM		250 to 1000 nM	0.1 to 100 nM	250 to 1000 nM	250 to 1000 nM
C=CC(=O)N1CCC2(CC1)CC(n1nnc(-c3cc(O[C@@H](CO)c4ccc(F)cn4)c4c(C#N)cnn4c3)c1C)C2 [Example 12, (R)-6-(1-(7-acryloyl-7-azaspiro[3.5]nonan-2-yl)-5-methyl-1H-1,2,3-triazol-4-yl)-4-(1-(5-fluoropyridin-2-yl)-2-hydroxyethoxy)pyrazolo[1,5-a]pyridine-3-carbonitrile]	250 to 1000 nM	250 to 1000 nM	250 to 1000 nM	100 to 250 nM	≥ 1000 nM	≥ 1000 nM	250 to 1000 nM	≥ 1000 nM	≥ 1000 nM
C=CC(=O)N1CCC2(CC1)CC(n1nnc(-c3cc(O[C@H](C)c4ccccn4)c4c(Cl)cnn4c3)c1C)C2 [Example 4, (R)-1-(2-(4-(3-chloro-4-(1-(pyridin-2-yl)ethoxy)-pyrazolo[1,5-a]pyridin-6-yl)-5-methyl-1H-1,2,3-triazol-1-yl)-7-azaspiro[3.5]nonan-7-yl)prop-2-en-1-one]	0.1 to 100 nM			0.1 to 100 nM		100 to 250 nM	0.1 to 100 nM	100 to 250 nM	250 to 1000 nM
